The values below come from ChEMBL document CHEMBL1149429, “Privileged structure-based quinazolinone natural product-templated libraries: identification of novel tubulin polymerization inhibitors” (Bioorg Med Chem Lett, 2006).

The target of one assay is Tubulin (Homo sapiens) (UniProt P68371+Q9H4B7+P0DPH7+P68366+Q13509+Q71U36+P04350+Q3ZCM7+P07437+P68363+Q9BQE3+Q6PEY2+Q13885+Q9BVA1+Q9BUF5). The assay can be described thus: Inhibitory activity against tubulin polymerization. In kind it is protein-complex assay.
Another assay relates to MDA-MB-231. The assay can be described thus: Antiproliferative activity against MDA-MB-231 cell line by MTS assay. Type of assay: functional, cell-based. Particulars: Homo sapiens. On the technique in general: Tetrazolium dyes change colour on reduction, which living cells bring about.
The test system of a further assay is A549. The assay can be described thus: Antiproliferative activity against A549 cell line by MTS assay. In kind it is functional, cell-based. To be noted: Homo sapiens.
Another assay has as its system SF-268. The assay can be described thus: Antiproliferative activity against SF268 cell line by MTS assay. To be noted: Homo sapiens. In kind it is functional, cell-based.
A further assay deals with NCI-H460. The assay can be described thus: Antiproliferative activity against NCI-H460 cell line by MTS assay. Type of assay: functional, cell-based. Particulars: Homo sapiens.
In the next assay the test system is HMEC. The assay can be described thus: Antiproliferative activity against HMEC cell line by MTS assay. In kind it is functional, cell-based. Particulars: Homo sapiens.
The test system of another assay is DU-145. The assay can be described thus: Antiproliferative activity against DU145 cell line by MTS assay. In kind it is functional, cell-based. Particulars: Homo sapiens.
In the next assay the target is Tubulin. As to the kind of experiment: Effect on induction of mitotic arrest by phosphohistone H3 (pH3) assay. Type of assay: functional.

Activity calls are given as the source filed them. The rule behind the calls is not given here.

As a reminder, the IC50 is the concentration needed to halve the response being measured. A lower IC50 goes with higher potency. Usually EC50 stands for the concentration needed to bring the measured effect to its halfway point. A higher EC50 goes with a less potent agent. For the compound `COc1cc(/C=C2\CCCn3c2nc2c(OC)cccc2c3=O)cc(OC)c1O`, the outcome on Tubulin (Homo sapiens) was Active. In addition, the IC50 is 1.3 µM with MDA-MB-231; 0.69 µM in the assay on A549; 0.79 µM in the assay on SF-268; 0.33 µM with NCI-H460; > 20 µM in the assay on HMEC; 0.51 µM in the assay on DU-145. It took 0.54 µM to reach a half-maximal effect at Tubulin (EC50).

In the case of `COc1cc(/C=C2\CCCn3c2nc2c(C)cccc2c3=O)cc(OC)c1O`, at Tubulin (Homo sapiens), the result was Active. Moreover, the IC50 in the assay with MDA-MB-231 was 11.2 µM; in the assay with A549 it was 3.17 µM; in the assay on SF-268, 3.48 µM; with NCI-H460, 1.5 µM; in the assay with HMEC, > 20 µM; in the assay with DU-145, 2.63 µM. Further, the concentration giving a half-maximal response (EC50) at Tubulin turned out to be 1.64 µM.

`COc1cc(/C=C2\CCCn3c2nc2c(C)cc(C)cc2c3=O)cc(OC)c1O`: at Tubulin (Homo sapiens), the outcome was Active. Besides, the 50% inhibitory concentration (IC50) was 2.09 µM in the assay on MDA-MB-231; 0.55 µM in the assay with A549; 0.83 µM in the assay with SF-268; 0.24 µM in the assay with NCI-H460; > 20 µM in the assay with HMEC; 0.79 µM with DU-145. Besides, the 50% effective concentration (EC50) on Tubulin stood at 0.26 µM.

Regarding `COc1cc(/C=C2\CCCn3c2nc2ccc(I)cc2c3=O)cc(OC)c1O`, the outcome at Tubulin (Homo sapiens) was Active. In addition, the concentration for half-maximal inhibition (IC50) was > 20 µM in the assay on MDA-MB-231; 10.6 µM with A549; 11.2 µM in the assay on SF-268; 4.31 µM in the assay with NCI-H460; > 20 µM in the assay on HMEC; 10.3 µM in the assay with DU-145. A half-maximal effect at Tubulin (EC50) was put at 10.6 µM.

On to `COc1ccc2nc3n(c(=O)c2c1)CCC/C3=C\c1cc(OC)c(O)c(OC)c1`, for which, at Tubulin (Homo sapiens), the result was Active. The IC50 in the assay on MDA-MB-231 was > 20 µM; with A549 it was > 20 µM; in the assay with SF-268, > 20 µM; in the assay with NCI-H460, 3.71 µM; with HMEC, > 20 µM; with DU-145, 10.3 µM.

Consider `CC(=O)O[C@H]1C(=O)[C@@]2(C)[C@H]([C@H](OC(=O)c3ccccc3)[C@]3(O)C[C@H](OC(=O)[C@H](O)[C@@H](NC(=O)c4ccccc4)c4ccccc4)C(C)=C1C3(C)C)[C@]1(OC(C)=O)CO[C@@H]1C[C@@H]2O` [PACLITAXEL], for which the concentration for half-maximal inhibition (IC50) stood at 0.013 µM in the assay on A549 and 0.012 µM in the assay on NCI-H460. At Tubulin, this compound gave a 50% effective concentration (EC50) of 0.031 µM.

Consider `COc1cc(/C=C2\CCCn3c2nc2ccc(O)cc2c3=O)cc(OC)c1O`, for which the result on Tubulin (Homo sapiens) was Active. Also, the IC50 in the assay on MDA-MB-231 is > 20 µM; in the assay with A549, > 20 µM; with SF-268, > 20 µM; in the assay on NCI-H460, 14.9 µM; in the assay on HMEC it was > 20 µM; in the assay on DU-145 it was > 20 µM.

Regarding `COc1cc(/C=C2\CCCn3c2nc2ccc(Br)cc2c3=O)cc(OC)c1O`, the result on Tubulin (Homo sapiens) was Active. The IC50 is > 20 µM in the assay on MDA-MB-231; 11.7 µM in the assay on A549; 6.72 µM in the assay with SF-268; 1.98 µM with NCI-H460; > 20 µM in the assay on HMEC; 8.47 µM with DU-145. At Tubulin, this compound gave a concentration for a half-maximal effect (EC50) of 2.38 µM.

Take `COc1cc(/C=C2\CCCn3c2nc2ccc(C)cc2c3=O)cc(OC)c1O`: the outcome on Tubulin (Homo sapiens) was Active. Further, the IC50 in the assay with MDA-MB-231 was > 20 µM; in the assay on A549, > 20 µM; in the assay on SF-268, 11.5 µM; in the assay on NCI-H460, 3.2 µM; in the assay with HMEC it was > 20 µM; in the assay on DU-145, 14.7 µM.

With `COc1cc(/C=C2\CCCn3c2nc2c(O)cccc2c3=O)cc(OC)c1O`, the result on Tubulin (Homo sapiens) was Active. Besides, the concentration for half-maximal inhibition (IC50) is 7.72 µM in the assay on MDA-MB-231; 5.49 µM in the assay with A549; 4.76 µM in the assay with SF-268; 1.36 µM with NCI-H460; > 20 µM in the assay on HMEC; 3.11 µM in the assay on DU-145. In addition, the EC50 at Tubulin amounted to 1.16 µM.

Regarding `COc1cc(/C=C2\CCCn3c2nc2ccc(F)cc2c3=O)cc(OC)c1O`, on Tubulin (Homo sapiens), the result was Active. Further, the concentration for half-maximal inhibition (IC50) was > 20 µM with MDA-MB-231; 9.43 µM in the assay on A549; 14.1 µM with SF-268; 3.91 µM in the assay on NCI-H460; > 20 µM in the assay on HMEC; 14.2 µM with DU-145.

For the compound `COc1cc(/C=C2\CCCn3c2nc2ccc(Cl)cc2c3=O)cc(OC)c1O`, the result on Tubulin (Homo sapiens) was Active. Further, the IC50 in the assay on MDA-MB-231 is > 20 µM; in the assay on A549, > 20 µM; in the assay with SF-268, 18.6 µM; with NCI-H460, 8.63 µM; in the assay on HMEC, > 20 µM; in the assay with DU-145 it was 18.3 µM.
